“And” between values parts separate entries of the source, which are not always exact repeats. Identical values can stand only once. Like-named read-outs stand apart in the source and are kept apart here.
Assays:
[1] = test system: LNCaP (p53 wild-type); experiment: Cell growth inhibition (WST-8, 4 days), LNCaP; assay type: cell-based, human;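 further: LNCaP human prostate cancer cells exposed to compound for 4 days, with inhibition of cell growth as the measured effect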
Description: (§1) To test these predictions, a cell growth assay was developed using human prostate cancer LNCaP (p53 wild-type) and PC-3 (p53 null) cell lines. The toxic effects of compounds of the invention were tested.
(§2) Cells were seeded in 96-well flat bottom cell culture plates at a density of 3-4x 10^3 cells/well and incubated in the presence of compounds for 4 days.

[2] = test system: HCT116 p53WT; experiment: Cell growth inhibition (WST-8), HCT116 p53WT; assay type: cell-based; settings: individual determinations and mean ± SD lines;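 further: compound exposure of the cells lasted 4 days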
Description: as §2

[3] = test system: HCT116 p53KO; experiment: Cell growth inhibition (WST-8), HCT116 p53KO; assay type: cell-based;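 further: cells in 96-well plates exposed to compound for 4 days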
Description: as §2

[4] = test system: PC-3 (p53 null); experiment: Cell growth inhibition (WST-8, 4 days), PC3; assay type: cell-based, human;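 further: PC-3 is a human prostate cancer line, cultured with test compound throughout the 4-day growth assay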
Description: as §1, §2

[5] = biological target: MDM2 protein (Homo sapiens, UniProt Q00987); experiment: MDM2 binding assay, competition with tracer F-6 (IC50 and calculated Ki); settings: MDM2 [10 nM]; F-6 [1 nM]; individual determinations, values not in parentheses
[6] = read-out: LNCaP IC50, individual determinations and mean ± SD lines
[7] = Homo sapiens, HCT-116, read-out: HCT116 p53WT IC50 (µM), HCT116 p53WT
[8] = read-out: HCT116 p53WT IC50, HCT116 p53WT
[9] = read-out: HCT116 p53KO IC50, HCT116 p53KO, individual determinations and mean ± SD lines
[10] = read-out: PC3 IC50, PC3, p53 null, individual determinations and mean ± SD lines
[11] = individual determinations and mean ± SD lines, read-out: LNCaP IC50
[12] = HCT116 p53WT, read-out: HCT116 p53WT IC50
[13] = HCT116 p53KO, individual determinations and mean ± SD lines, read-out: HCT116 p53KO IC50
[14] = PC3, p53 null, individual determinations and mean ± SD lines, read-out: PC3 IC50
[15] = Homo sapiens, 96 h, individual determinations and mean ± SD lines, read-out: LNCaP IC50
[16] = Homo sapiens, 96 h, PC3, p53 null, individual determinations and mean ± SD lines, read-out: PC3 IC50
[17] = Homo sapiens, HCT-116, HCT116 p53WT, read-out: HCT116 p53WT IC50
[18] = Homo sapiens, HCT-116, HCT116 p53KO, individual determinations and mean ± SD lines, read-out: HCT116 p53KO IC50

Sequence of MDM2 protein (Q00987 whole entry, species assumed): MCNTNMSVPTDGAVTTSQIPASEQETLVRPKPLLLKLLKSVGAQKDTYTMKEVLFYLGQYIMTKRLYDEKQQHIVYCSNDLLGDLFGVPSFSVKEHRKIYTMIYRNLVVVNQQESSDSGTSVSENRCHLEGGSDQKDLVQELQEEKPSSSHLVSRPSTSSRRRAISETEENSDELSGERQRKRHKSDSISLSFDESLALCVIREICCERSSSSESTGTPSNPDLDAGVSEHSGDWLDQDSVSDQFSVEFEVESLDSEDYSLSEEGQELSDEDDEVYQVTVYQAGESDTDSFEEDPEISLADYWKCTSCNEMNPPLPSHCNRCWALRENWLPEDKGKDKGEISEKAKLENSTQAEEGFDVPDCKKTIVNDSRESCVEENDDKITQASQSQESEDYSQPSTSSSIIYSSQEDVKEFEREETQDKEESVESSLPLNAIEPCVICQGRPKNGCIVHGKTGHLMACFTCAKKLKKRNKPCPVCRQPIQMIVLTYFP

Compound: CC(C)(C)C[C@H]1N[C@@H](C(=O)NCCC2CCC(O)C2)[C@H](c2ccc(F)c(Cl)c2)[C@@]12C(=O)Nc1cc(Cl)c(F)cc12 (single isomer, unassigned) [MDM2-319-6, 6-CHLORO-4'-(3-CHLORO-4-FLUOROPHENYL)-2'-(2,2-DIMETHYL-PROPYL)-5-FLUORO-2-OXO-1,2-DIHYDRO-SPIRO[INDOLE-3,3'-PYRROLIDINE]-5'-CARBOXYLIC ACID [2-(3-HYDROXY-CYCLOPENTYL)-ETHYL)-AMIDE]
- IC50 [1, 6]: 2.58 µM and 1.22 µM and 1.93 µM and 1.91 µM
- IC50 [2, 7]: 5.45 µM
- IC50 [2, 8]: 7.41 µM and 5.96 µM and 6.26 µM
- IC50 ([3]; Homo sapiens, HCT-116, read-out: HCT116 p53KO IC50 (µM), HCT116 p53KO, individual determinations and mean ± SD lines): 14.3 µM
- IC50 [3, 9]: 16.1 µM and 14.6 µM and 15 µM
- IC50 ([4]; Homo sapiens, 96 h, read-out: PC3 IC50 (µM), PC3, p53 null, individual determinations and mean ± SD lines): 21.4 µM
- IC50 [4, 10]: 20.8 µM and 14.2 µM and 18.7 µM

Compound: CC(C)(C)C[C@H]1N[C@@H](C(=O)NCCC2CCC(O)C2)[C@H](c2ccc(F)c(Cl)c2)[C@@]12C(=O)Nc1cc(Cl)c(F)cc12 (stereo partly shown) [MDM2-319-5]
- IC50 [1, 11]: 0.465 µM and 0.634 µM and 0.56 µM
- IC50 [2, 12]: 1.29 µM and 1.5 µM and 1.23 µM
- IC50 [3, 13]: 5.39 µM and 8.4 µM and 8.1 µM
- IC50 [4, 14]: 5.55 µM and 8.71 µM and 7.91 µM

Compound: O=C(NCC[C@H](O)CO)[C@@H]1N[C@H](C2CCCCC2)[C@]2(C(=O)Nc3cc(Cl)c(F)cc32)[C@H]1c1ccc(F)c(Cl)c1 [MDM2-319-4, 6-CHLORO-4'-(3-CHLORO-4-FLUOROPHENYL)-2'-CYCLOHEXYL-5-FLUORO-2-OXO-1,2-DIHYDRO-SPIRO[INDOLE-3,3'-PYRROLIDINE]-5'-CARBOXYLIC ACID (3,4-DIHYDROXY-BUTYL)-AMIDE]
- IC50 [1, 15]: 1.42 µM
- IC50 [1, 11]: 1.29 µM and 0.89 µM and 1.21 µM
- IC50 [2, 12]: 5.03 µM and 5.8 µM and 2.41 µM and 4.41 µM
- IC50 [3, 13]: 13.1 µM and 26.5 µM and 13.4 µM and 17.6 µM
- IC50 [4, 16]: 18.5 µM
- IC50 [4, 14]: 23.4 µM and 25.6 µM and 22.5 µM

Compound: CN1CCN(C(=O)[C@@H]2N[C@H](CC(C)(C)C)[C@]3(C(=O)Nc4cc(Cl)c(F)cc43)[C@H]2c2ccc(F)c(Cl)c2)CC1 [MI-319-9]
- IC50 [1, 6]: 5 µM and 2.46 µM
- IC50 [2, 7]: 7.48 µM
- IC50 [2, 8]: 9.2 µM and 4.63 µM and 7.1 µM
- IC50 [3, 9]: 9.71 µM and 8.19 µM and 4.52 µM and 7.47 µM

Compound: CC(C)(C)C[C@H]1N[C@@H](C(=O)NC[C@H](O)[C@H](O)CO)[C@H](c2ccc(F)c(Cl)c2)[C@@]12C(=O)Nc1cc(Cl)c(F)cc12 [MI-319-19, 6-CHLORO-4'-(3-CHLORO-4-FLUOROPHENYL)-2'-(2,2-DIMETHYL-PROPYL)-5-FLUORO-2-OXO-1,2-DIHYDRO-SPIRO[INDOLE-3,3'-PYRROLIDINE]-5'-CARBOXYLIC ACID (2,3,4-TRIHYDROXY-BUTYL)-AMIDE]
- IC50 [1, 15]: 1.24 µM
- IC50 [1, 11]: 2.4 µM and 1.2 µM
- IC50 [2, 12]: 2.68 µM and 5.98 µM and 4.6 µM
- IC50 [3, 13]: > 30 µM and 77.6 µM
- IC50 [4, 16]: 30.7 µM
- IC50 [4, 14]: > 30 µM and 41.6 µM

Compound: CC(=O)N1[C@@H](C(=O)NCC[C@H](O)CO)[C@H](c2ccc(F)c(Cl)c2)[C@@]2(C(=O)Nc3cc(Cl)c(F)cc32)[C@H]1CC(C)(C)C [MI-319-13, 1'-ACETYL-6-CHLORO-4'-(3-CHLORO-4-FLUOROPHENYL)-2'-(2,2-DIMETHYLPROPYL)-5-FLUORO-2-OXO-1,2-DIHYDRO-SPIRO[INDOLE-3,3'-PYRROLIDINE]-5'-CARBOXYLIC ACID (3,4-DIHYDROXY-BUTYL)-AMIDE]
- IC50 [1, 6]: 3.66 µM and 2.32 µM and 4.85 µM and 3.6 µM
- IC50 [2, 8]: 3.23 µM and 6.37 µM and 11 µM and 6.85 µM

Compound: CC(C)(C)C[C@H]1N[C@@H](C(=O)NCC[C@H](O)CO)[C@H](c2ccc(F)c(Cl)c2)[C@@]12C(=O)Nc1cc(Cl)c(F)cc12 [MDM2-319, (2'R,3S,3"S,4'R,5'R) 6-CHLORO-4'-(3-CHLORO-4-FLUORO-PHENYL)-2'-(2,2-DIMETHYL-PROPYL)-5-FLUORO-2-OXO-1,2-DIHYDRO-SPIRO[INDOLE-3,3'-PYRROLIDINE]-5'-CARBOXYLIC ACID (3,4-DIHYDROXY-BUTYL)-AMIDE]
- IC50 [1, 11]: 0.274 µM and 0.184 µM and 0.229 µM
- IC50 [2, 12]: 0.717 µM and 0.615 µM and 0.247 µM and 0.52 µM
- IC50 ([3]; read-out: HCT116 p53KO IC50): 11.8 µM and 12.2 µM and 14.2 µM

Compound: 6-CHLORO-4'-(3-CHLORO-4-FLUOROPHENYL)-2'-(2,2-DIMETHYL-PROPYL)-5-FLUORO-2-OXO-1'-OXY-1,2,4',5'-TETRAHYDRO-SPIRO[INDOLE-3,3'-PYRROLE]-5'-CARBOXYLIC ACID (3,4-DIHYDROXY-BUTYL)-AMIDE [MI-319-14]
- IC50 [2, 12]: 8.01 µM and 9.27 µM and 5.74 µM and 7.67 µM
- IC50 [3, 13]: > 30 µM
- IC50 [5]: 2.04 µM and 1.66 µM
- IC50 [4, 14]: 40.1 µM and 40.2 µM and > 30 µM

Compound: COC(C)(C)C[C@H]1N[C@@H](C(=O)NCC[C@H](O)CO)[C@H](c2ccc(F)c(Cl)c2)[C@@]12C(=O)Nc1cc(Cl)c(F)cc12 [MI-319-7]
- IC50 [1, 11]: 1.92 µM
- IC50 [2, 12]: 7.95 µM
- IC50 [4, 14]: 34.3 µM

Compound: CC(C)(C)C[C@H]1N[C@@H](C(=O)NCCNC(=N)N)[C@H](c2ccc(F)c(Cl)c2)[C@@]12C(=O)Nc1cc(Cl)c(F)cc12 [MI-319-20, 6-CHLORO-4'-(3-CHLORO-4-FLUOROPHENYL)-2'-(2,2-DIMETHYL-PROPYL)-5-FLUORO-2-OXO-1,2-DIHYDRO-SPIRO[INDOLE-3,3'-PYRROLIDINE]-5'-CARBOXYLIC ACID (2-GUANIDINO-ETHYL)-AMIDE]
- IC50 [2, 8]: > 30 µM and 93.5 µM
- IC50 [3, 9]: > 100 µM
- IC50 [4, 10]: > 30 µM and 66.1 µM

Compound: CC(C)(C)C[C@H]1N[C@@H](C(=O)NCCn2ccnc2)[C@H](c2ccc(F)c(Cl)c2)[C@@]12C(=O)Nc1cc(Cl)c(F)cc12 [MI-319-17, 6-CHLORO-4'-(3-CHLORO-4-FLUOROPHENYL)-2'-(2,2-DIMETHYL-PROPYL)-5-FLUORO-2-OXO-1,2-DIHYDRO-SPIRO[INDOLE-3,3'-PYRROLIDINE]-5'-CARBOXYLIC ACID (2-IMIDAZOL-1-YL-ETHYL)-AMIDE]
- IC50 [1, 15]: 1.1 µM
- IC50 [1, 11]: 1.55 µM and 1.51 µM
- IC50 [2, 12]: 3.79 µM and 3.15 µM
- IC50 [2, 17]: 2.1 µM
- IC50 [3, 13]: 22.3 µM and 25.1 µM
- IC50 [3, 18]: 25.1 µM
- IC50 [4, 16]: 14 µM
- IC50 [4, 14]: 22 µM and 23.6 µM

Compound: CC(C)(C)C[C@H]1N[C@@H](C(=O)NCCc2ncc[nH]2)[C@H](c2cccc(Cl)c2)[C@@]12C(=O)Nc1cc(Cl)c(F)cc12 [MI-319-21]
- IC50 [1, 11]: 1.84 µM
- IC50 [2, 12]: 3.88 µM
- IC50 [3, 13]: 13.2 µM
- IC50 [4, 14]: 14.1 µM

Compound: O=C(NCC[C@H](O)CO)[C@@H]1N[C@H](CC2CCCC2)[C@]2(C(=O)Nc3cc(Cl)c(F)cc32)[C@H]1c1ccc(F)c(Cl)c1 [MDM2-319-1, 6-CHLORO-4'-(3-CHLORO-4-FLUOROPHENYL)-2'-CYCLOPENTYLMETHYL-5-FLUORO-2-OXO-1,2-DIHYDRO-SPIRO[INDOLE-3,3'-PYRROLIDINE]-5'-CARBOXYLIC ACID (3,4-DIHYDROXY-BUTYL)-AMIDE]
- IC50 [1, 15]: 0.261 µM
- IC50 [1, 11]: 0.36 µM
- IC50 [2, 12]: 1.36 µM
- IC50 [2, 17]: 0.908 µM
- IC50 [3, 13]: 10.4 µM
- IC50 [3, 18]: 12.7 µM

Compound: O=C(NCC[C@H](O)CO)[C@@H]1N[C@H](C2CCCC2)[C@]2(C(=O)Nc3cc(Cl)c(F)cc32)[C@H]1c1ccc(F)c(Cl)c1 [MI-319-8, 6-CHLORO-4'-(3-CHLORO-4-FLUOROPHENYL)-2'-CYCLOPENTYL-5-FLUORO-2-OXO-1,2-DIHYDRO-SPIRO[INDOLE-3,3'-PYRROLIDINE]-5'-CARBOXYLIC ACID (3,4-DIHYDROXY-BUTYL)-AMIDE]
- IC50 [1, 11]: 0.963 µM and 0.893 µM and 0.662 µM and 1.46 µM
- IC50 [2, 12]: 4.73 µM and 2.74 µM and 3.86 µM
- IC50 [2, 17]: 4.11 µM
- IC50 [3, 13]: 25.5 µM and 22.7 µM and 26.3 µM
- IC50 [3, 18]: 30.9 µM
- IC50 [4, 16]: 30.7 µM
- IC50 [4, 14]: 20.7 µM and 18.4 µM and 23.3 µM

From patent EP2063887B1, “NEW SMALL MOLECULE INHIBITORS OF MDM2 AND THE USES THEREOF” (priority 2006, dated 2008)
